Assay results from patent publication US20240197828A1, “Chimeric molecule to treat sepsis and other inflammatory conditions” (THE FEINSTEIN INSTITUTES FOR MEDICAL RESEARCH, priority 2022, published 2024).
Residues, ends and D or L forms follow the SMILES beside them.

Key:
WT mice [1] = assay: CLP-induced sepsis, 10-day survival; type: in vivo, mouse
Procedure: FIG. 6A-6M: MOP3 ameliorates inflammation, lung injury, and improves survival in sepsis. WT mice subjected to CLP-induced sepsis with MOP3 treatment (10 μg/kg) or vehicle (volume-equivalent). After 20 hours, blood and lung tissue collected for respective analyses. (A-C) Serum was analyzed for systemic eCIRP, IL-6, and TNFα levels by ELISA. (D-F) Serum was analyzed for ALT, AST, and LDH by calorimetric assays. (G-I) Lung tissue was frozen and mRNA expression of IL-6, TNFα, and IL-1β was measured by PCR and MPO by calorimetric assay. (J) Lung tissue was frozen and analyzed for MPO levels by calorimetric assay. (K) Lungs were sectioned, imaged for histologic injury by H&E staining, and performed lung injury scoring. (L) Sectioned lungs were stained for TUNEL positive cells and cell counts were quantified. […] Data are expressed as mean±SEM and compared by one-way ANOVA and SNK test. *p<0.05 vs. sham, #p<0.05 vs. CLP vehicle. (M) WT mice subjected to CLP-induced sepsis with MOP3 treatment (10 μg/kg) or vehicle (volume equivalent) and monitored for 10 days for humane endpoints, and differences in survival were determined (N=17 per group). *p<0.05 vs. CLP vehicle. […]
Data represented in the figures are expressed as mean±SEM. […] Survival rates were analyzed by the Kaplan-Meier estimator and compared using a log-rank test. Significant differences between groups were determined by Tukey's method. […]

WT mice [2] = assay: Sterile eCIRP-induced inflammation by rmCIRP injection in mice; type: in vivo, mouse; settings: rmCIRP 5 mg/kg co-incubated 30 min with test substance, r.o. injection, 4 hours, vs eCIRP alone
Procedure: FIG. 5A-5B. eCIRP-induced inflammation is attenuated by MOP3. WT mice were treated according to respective groups: PBS (volume equivalent), rmCIRP (5 mg/kg), or MOP3 (10 μg/kg) co-incubated with rmCIRP (5 mg/kg) for 30 mins prior to r.o. injection. After 4 hours, serum was measured for IL-6 (A) and TNFα (B) levels by ELISA. All experiments were performed 3 times, and all data were used for analysis (N=7-10). Data are expressed as mean±SEM and compared by one-way ANOVA and SNK test. *p<0.05 vs. PBS, #p<0.05 vs. eCIRP.
Adult (8-12 weeks) male, C57BL/6 wild-type (WT) mice (20-30 g) were purchased from Charles River Laboratories. […] For the design of in vivo models, sample size calculation was driven by variability, effect size, significance level and power as determined through performance of early feasibility and optimization pilot studies. […]
The mouse macrophage cell culture supernatants were analyzed for cytokine levels using ELISA kits (BD Biosciences, CA). […] TNF-α and IL-6 levels were measured in cell supernatants by ELISA in accordance with respective manufacturers' instructions (BD Biosciences, CA). Blood was collected, centrifuged at 4,000 RPM for 10 minutes, and sera was separated and analyzed for cytokine levels using ELISA kits (BD Biosciences, CA). TNF-α and IL-6 levels in the serum were measured by ELISA in accordance with respective manufacturers' instructions. […]

SMILES: CC(C)C[C@H](NC(=O)[C@H](CC(N)=O)NC(=O)[C@H](Cc1c[nH]c2ccccc12)NC(=O)[C@@H](NC(=O)[C@H](CCCCN)NC(=O)[C@H](Cc1ccc(O)cc1)NC(=O)[C@H](CO)NC(=O)[C@H](CO)NC(=O)[C@H](CO)NC(=O)[C@H](CC(=O)O)NC(=O)CNC(=O)[C@@H](N)CCCNC(=N)N)[C@@H](C)O)C(=O)N[C@@H](CCCNC(=N)N)C(=O)N[C@@H](C)C(=O)N[C@@H](Cc1ccccc1)C(=O)NCC(=O)N[C@@H](Cc1c[nH]c2ccccc12)C(=O)N[C@@H](Cc1ccc(O)cc1)C(=O)O [MOP3, RGDSSSYKTWNLRAFGWY] (H-RGDSSSYKTWNLRAFGWY-OH; N-terminus and C-terminus assumed)
- mortality (WT mice [1]; CLP, one-time MOP3 dose, monitored 10 days, N=17 per group): 17.6%
- observed phenotypic effects (WT mice [1]; septic mice, no off-target, pharmacokinetic or toxicity studies performed): lack of observed phenotypic effects
- serum IL-6 levels (WT mice [2]): reduced systemic levels
- serum TNFα levels (WT mice [2]): reduced systemic levels
